{"source": "patent US11084836B2", "about": "“Compositions useful in therapy of autophagy-related pathologies, and methods of making and using the same” (The University of Toledo, priority 2016, dated 2021)", "key": {"[1]": {"test_system": "RG2 glioma cells", "assay": "Autophagic flux assay: LC3-I to LC3-II conversion in the presence of bafilomycin-A1, western blot", "assay_type": "cell-based, rat", "settings": "for stimulation of autophagy / autophagic flux (LC3-II increase in presence of bafilomycin-A1): 4 h, 50 nM bafilomycin-A1; for potency of autophagy stimulation relative to LKE (ratio of LC3-II band densities): western blot densitometry", "method": "In the assay, cells are treated with subtoxic concentrations of bafilomycin-A, which blocks lysosomal acidification. This prevents autophagosome fusion with lysosomes at a specific point. […] Then, autophagy flux is measured by the conjugation of phosphatidylethanolamine to LC3-I, yielding an electrophoretically separable LC3-II. LC3-II acts as a link between nascent autophagosomes and cargo being directed into these structures. The autophagy intermediate protein LC3-II (a phosphatidylethanolamine-conjugated form of LC3-I) is measured by western blot. An autophagy enhancer will increase LC3-II in the presence of bafilomycin, whereas a compound that inhibits autophagy completion will not do so. Thus, the LC3A-I to LC3A-II conversion in the presence of bafilomycin-A1 constitutes a valid measure of autophagy.\nAutophagy is a complex process involving many different protein components, but predominant amongst its regulatory elements are the mammalian target of rapamycin complex-1 (mTORC1) and unc-51-like kinase-1 (ULK1, FIG. 14). mTORC1 is itself a kinase that inhibits ULK1. When nutrients and cell energy are limiting, mTORC1 is suppressed by the coordinated actions of tuberous sclerosis complex (TSC) proteins 1 and 2 (TSC1/2) and Rheb (Ras homolog enriched in the brain). This allows disinhibition of ULK1, which then associates with beclin-1 protein to form pre-autophagosomal structures. Autophagosomes mature in a process marked by phosphatidylethanolamine conjugation to microtubule associated protein 1 light chain 3 (LC3-I→LC3-II conversion). After lysosomal fusion, the autophagy components are turned over and the cycle completes. One of the most reliable ways to determine whether a treatment increases true autophagy flux is to measure LC3-I to LC3-II conversion in the absence and presence of the vacuolar ATPase inhibitor bafilomycin-A1. Bafilomycin neutralizes lysosomal pH, preventing autophagosome-lysosomal fusion, and traps LC3-II at a point prior to its turnover in mature autophagolysosomes.\nThe cells were then incubated for an additional 4 h. At termination, the cell culture medium was removed, cells were washed with PBS and lysed on ice in Pierce RIPA buffer containing protease and phosphatase inhibitors.\nAn increase in the intensity of this band in the presence of bafilomycin-A1 indicates increased autophagic flux.\nRG2 glioma cells (American Tissue Type Collection, ATTC, Rockville Md. USA) were treated for 4 h with 50 nM bafilomycin-A1 (previously dissolved to 1000× final concentration in dimethylsulfoxide). Thirty minutes after addition of bafilomycin, cells were treated with test agents at 100× final concentration. Cells were lysed in RIPA buffer containing protease and phosphatase inhibitors. Protein concentration was assayed and normalized to constant values (typically 5-7 mg/mL). Proteins were electrophoresed across 4-20% polyacrylamide gels and wet blotted onto polyvinylidine difluoride (PVDF) membranes. Proteins were blotted with commercially available antibodies against LC3."}, "[2]": {"test_system": "RG2 glioma cells", "assay": "Proliferative capacity of glioma cells, tetrazolium reduction assay", "assay_type": "cell-based, rat", "method": "FIG. 37: Graph showing a reduction in proliferative capacity of RG2 glioma cells exposed to 2-n-hexyl-LKE-P. Glioma cells were plated at low density and treated with the indicated concentration of compound for 24 or 48 h, at which time relative cell number was estimated using a tetrazolium reduction assay.\nBiomarkers of autophagy have been positively correlated with relatively better prognosis (longer patient lifespan) in humans suffering from high grade glioma. Accordingly, phosphonate analogs were tested for ability to reduce replicative capacity in RG2 glioma cells wherein the compounds increase autophagy. Cells were plated at low density (approximately 25,000 cells/[…]) using general cell culture methods, and treated with logarithmic dilutions of test agent. After 24 or 48 hours, cell number was estimated by a tetrazolium reduction assay using a commercially available kit (Promega Aqueous OneStep™). […] By 48 h the cells had largely achieved confluence and became somewhat contact inhibited, thus reducing the difference between control and treatment groups."}, "[3]": {"test_system": "EOC-20 microglia", "assay": "TNFα-stimulated microglial M1 activation, nitrite accumulation in culture medium", "assay_type": "cell-based", "settings": "cytokine (TNFα)-stimulated EOC-20 microglia, side-by-side", "method": "Reaction completion was monitored by thin-layer chromatography and product identity was confirmed by mass spectrometry (FIG. 31A). […] M1 activation of EOC-20 cells was assessed by measuring TNFα-stimulated nitrite production."}, "[4]": {"assay": "Stability of the isolated solid under high vacuum", "assay_type": "physicochemical", "settings": "isolated white solid, at least overnight", "method": "FIGS. 15A-15B show the ^1H NMR spectrum of 2-butyl-LK-P, with and without peak assignments. FIGS. 16A-16B show the ^1H NMR spectrum of 2-butyl-LK-P, with integration values and with and without peak assignments. ^1H NMR (CDCl3) δ 3.96 (br. s., 1H), 3.05 (d, J=12.4 Hz, 1H), 2.84-2.66 (m, 1H), 2.36 (br. s., 2H), 1.56-1.32 (m, 2H), 1.24 (d, J=6.2 Hz, 2H), 0.89-0.77 (m, 3H); HRMS (ESI) m/z calcd for C9H17NO5PS [M+H]^+ 282.0565, found 282.0645.\nBriefly, to a solution of DEIVP (500.0 mg, 2.222 mmol), in a biotage microwave vial, was added bromotrimethylsilane (1.333 mL, […]). The tube was purged with argon, covered and heated at 400 W for 10 min. The contents of the vial were transferred to a round bottom flask, the vial was washed with dichloromethane (3×3 mL) which was transferred to the flask. The solvent and excess bromotrimethylsilane were removed in vacuo. To the flask was added dichloromethane (10 mL), which was subsequently removed in vacuo to aid in the removal of any residual bromotrimethylsilane. To the flask was added dichloromethane (9 mL) and, to this solution, with stirring, was added a solution of bromine ([…]) in dichloromethane (3 mL). The resultant solution was heated to reflux for 15 min and the solvent was removed in vacuo. […]"}, "[5]": {"test_system": "permanent middle cerebral artery occlusion (pMCAO)", "settings": "after pMCAO; cited from earlier work"}, "[6]": {"test_system": "C6 glioma tumor", "settings": "C6 glioma xenograft into rat cortices; cited from earlier work"}, "[7]": {"test_system": "cells", "settings": "H2O2 or t-butyl hydroperoxide; cited from earlier work"}, "[8]": {"test_system": "SHSY5Y neurons", "settings": "cited from earlier work"}, "[9]": {"test_system": "neurons", "settings": "glutamate toxicity; cited from earlier work"}, "[10]": {"settings": "measurement of brain LKE levels and animal studies"}, "[11]": {"test_system": "microglia", "settings": "cell systems; cited from earlier work"}, "[12]": {"test_system": "CRMP2", "settings": "CRMP2-dependent fashion; cited from earlier work"}, "[13]": {"test_system": "3×Tg-AD mouse model of Alzheimer's disease", "settings": "cited from earlier work"}, "[14]": {"test_system": "ULK1 system", "assay": "ULK1 / ULK1(p757) autophagy stimulation assay (mTOR pathway), western blot", "assay_type": "cell-based, rat", "settings": "RG2 cells, 24 h; read-out: EC50 on the ULK1 system (ULK1 increase and ULK1(p757) decrease)", "source_text": "This technique has been documented in the literature for use in the comparison of the potency of individual compounds, relative to a recognized standard, and this technique has become a standard method of autophagy analysis. In addition to quantitating the stimulation of autophagy for the compounds, relative to LKE, because it is cell based, this assay also provides evidence that the compounds can permeate cell membranes. This affords valuable information for the comparison of individual compounds to stimulate autophagy, and will allow them to be ranked for use in the determination of a structure activity relationship (SAR). […] For validation purposes, a second, quantitative autophagy stimulation assay was utilized. […] This second assay provides validation for the LC3 assay.\nWestern Blotting: The proteins were electrophoresed and wet-blotted to polyvinylidine difluoride membranes, blocked overnight in 4% bovine serum albumin, and developed using antibodies obtained from Cell Signaling Technology (LC3A: cat #. 4599; ULK1: cat #. 8054, ULK1(p757): cat #. 6880)."}, "[15]": {"settings": "cell systems and C. elegans; cited from earlier work"}, "[16]": {"test_system": "SOD1^G93A mouse model of amyotrophic lateral sclerosis", "settings": "cited from earlier work"}}, "note": "Entries after “also recorded” stand apart in the source; their conditions may differ.", "data": [{"smiles": "O=C(O)C1=CSC[C@@H](C(=O)O)N1", "note": "[LK, (5R)-3,5,-dicarboxy-1-thia-4-aza-2-cyclohexene, reference compound]", "values": [{"measurement": "stimulation of autophagy / autophagic flux (LC3-II increase in presence of bafilomycin-A1)", "setting": "[1]", "value": "increase autophagic flux"}]}, {"smiles": "CC(C)C1=C(P(=O)(O)O)NCCS1", "note": "[2-isopropyl AECK-P, AminoEthyl Cysteine Ketimine-Phosphonate]", "values": [{"measurement": "stimulation of autophagy / autophagic flux (LC3-II increase in presence of bafilomycin-A1)", "setting": "[1]", "value": "can enter cells to elicit a response"}, {"measurement": "potency of autophagy stimulation relative to LKE (ratio of LC3-II band densities)", "setting": "[1]", "value": "comparable activity"}]}, {"smiles": "CCCCCCC1=C(P(=O)(O)O)N[C@H](C(=O)OCC)CS1", "note": "[2-n-hexyl-LKE-P]", "values": [{"measurement": "cell number", "setting": "[2]; 48 h", "value": "dose-dependent reduction in the cell number"}, {"measurement": "replication of cultures", "setting": "[2]; first 24 h", "value": "replicated more slowly"}]}, {"smiles": "CCOC(=O)[C@@H]1CSC(C(C)N2CCCC2=O)=C(C(=O)O)N1", "note": "(single isomer, unassigned) [NVP-LKE]", "values": [{"measurement": "suppression of nitric oxide (nitrite) production / microglial activation relative to LKE", "setting": "[3]", "value": "maintains or gains potency over LKE; also recorded: equal or superior to LKE; also recorded: as potent or more potent than LKE"}, {"measurement": "stimulation of autophagy / autophagic flux (LC3-II increase in presence of bafilomycin-A1)", "setting": "[1]", "value": "stimulates autophagy in RG2 cells"}, {"measurement": "potency of autophagy stimulation relative to LKE (ratio of LC3-II band densities)", "setting": "[1]", "value": "better autophagy activation than LKE; also recorded: more potent autophagy stimulator than LKE"}]}, {"smiles": "CCCCC1=C(P(=O)(O)O)N[C@H](C(=O)O)CS1", "values": [{"measurement": "stability to high vacuum pressures", "setting": "[4]", "value": "stable to high vacuum pressures at least overnight without visual or spectral decomposition"}, {"measurement": "stimulation of autophagy / autophagic flux (LC3-II increase in presence of bafilomycin-A1)", "setting": "[1]", "value": "enter into cells and stimulate autophagy to varying degrees"}, {"measurement": "potency of autophagy stimulation relative to LKE (ratio of LC3-II band densities)", "setting": "[1]", "value": "comparable activity"}, {"measurement": "potency of autophagy stimulation relative to LKE (ratio of LC3-II band densities)", "setting": "[1]; listed as 2-butyl-LK-P", "value": "more effective at inducing autophagic flux than, inter alia, LK-E"}]}, {"smiles": "CC(C)C1=C(P(=O)(O)O)N[C@H](C(=O)O)CS1", "note": "[2-isopropyl-LK-P, 2-isopropyl lanthionine ketimine phosphonate]", "values": [{"measurement": "stability to high vacuum pressures", "setting": "[4]", "value": "stable to high vacuum pressures at least overnight without visual or spectral decomposition"}, {"measurement": "stimulation of autophagy / autophagic flux (LC3-II increase in presence of bafilomycin-A1)", "setting": "[1]", "value": "stimulates autophagy in RG2 cells at low micromolar concentrations; also recorded: enter into cells and stimulate autophagy to varying degrees; also recorded: increase autophagic flux"}, {"measurement": "potency on autophagic flux relative to LK", "setting": "[1]; at 10 μM", "value": "clearly more potent at 10 μM than LK was"}, {"measurement": "potency on autophagic flux relative to LK", "setting": "[1]; at 10 mM (FIG. 6 legend)", "value": "clearly was more potent at 10 mM than was LK"}, {"measurement": "potency of autophagy stimulation relative to LK", "setting": "[1]; visual inspection of western blot", "value": "much more potent stimulator of autophagy than LK"}, {"measurement": "potency of autophagy stimulation relative to LKE (ratio of LC3-II band densities)", "setting": "[1]", "value": "comparable activity"}]}, {"smiles": "CCOC(=O)C1CSC=C(C(=O)O)N1", "note": "(stereo not shown) [LKE, lanthionine ketimine-ethyl ester]", "values": [{"measurement": "infarct volume and functional recovery", "setting": "[5]", "value": "decreases infarct volume and improves functional recovery"}, {"measurement": "tumor growth", "setting": "[6]", "value": "slows growth of C6 glioma tumor"}, {"measurement": "antioxidant activity", "setting": "[7]", "value": "protecting cells against H2O2 or t-butyl hydroperoxide"}, {"measurement": "amyloid reducing activity", "setting": "[8]", "value": "decreasing production of native Aβ(1-40)"}, {"measurement": "anti-excitotoxin activity", "setting": "[9]", "value": "protecting neurons from glutamate toxicity"}, {"measurement": "βββ penetrability", "setting": "[10]", "value": "good βββ penetrability"}, {"measurement": "anti-neuroinflammatory activity", "setting": "[11]", "value": "decreasing microglial response to inflammatory cytokines"}, {"measurement": "neurotrophic activity", "setting": "[12]", "value": "potentiating growth factor-dependent neurite growth"}, {"measurement": "amyloid burden, phospho-tau, microglial activation, cognitive decline", "setting": "[13]", "value": "decreases amyloid burden inside neurons and in plaques, decreases phospho-tau accumulation, decreases microglial activation, and slows cognitive decline"}, {"measurement": "stimulation of autophagy / autophagic flux (LC3-II increase in presence of bafilomycin-A1)", "setting": "[1]", "value": "enter into cells and stimulate autophagy to varying degrees"}, {"measurement": "EC50", "setting": "[14]", "value": "~50", "unit": "nM"}, {"measurement": "axonal transport enhancement", "setting": "[15]", "value": "potentiating anterograde trafficking and delivery of synaptic proteins to the distal axon"}, {"measurement": "lifespan and motor function", "setting": "[16]", "value": "increases lifespan and slows decline of motor function"}]}]}
